These results are taken from US20070203134A1, “Benzimidazole Acetonitriles” (APPLIED RESEARCH SYSTEMS ARS HOLDING N.V., priority 2004, published 2007).

One assay concerns the target human GSK3 beta (Homo sapiens, UniProt P49841). As to the kind of experiment: GSK3β in vitro kinase assay (33P-ATP phosphorylation of phospho GS2 peptide). The conditions noted are these: in vitro potency, read-out: IC50 (μM) GSK3beta. The format is biochemical. As to the method:
GSK3β Assay (see Bioorg. Med. Chem. Lett by Naerum et al. 12 p. 1525-1528 (2002))
In a final reaction volume of 25 μl, GSK3β (h) (5-10 mU) is incubated with 8 mM MOPS pH 7.0, 0.2 mM EDTA, 20 μM […](p)EDEEE (being the GSK3 substrate; a phospho GS2 peptide), 10 mM Mg Acetate and [γ-^33P-ATP] (Specific activity approx. 500 cpm/pmol, concentration as required). The reaction is initiated by the addition of Mg^2+ [γ-^33P-ATP]. After incubation for 40 minutes at room temperature, the reaction is stopped by the addition of 5 μl of a 3% phosphoric acid solution. 10 μl of the reaction is then spotted onto a P30 filtermat and washed three times for 5 minutes in 50 mM phosphoric acid and once in methanol prior to drying and the degree of phosphorylation of the substrate is determined by scintillation counting.

The test system of the next assay is db/db mice. Briefly: Experimental model of type II diabetes (oral postprandial glycemia in db/db mice). The format is in vivo. The following applies: 50 mg/kg per os, 4 hrs after drug administration, compared to vehicle treated Group 1. As to the method: b) In Vivo Assay: Experimental Model of Type II Diabetes (oral Postprandial Glycemia in db/db Mice)
The following assay aims at determining the anti-diabetic effect of the test compounds of formula (I) in a model of postprandial glycemia in db/db mice, in vivo.
The assay was performed as follows:
A total of 24 db/db mice (about 8-9 weeks; obtained from IFFACREDO, l'Arbreste, France) were fasted during 20 hours.
2 groups, each consisting of 6 animals were formed: • Group 1: The animals were administered (per os) a dose of 10 mg/kg of vehicle. • Group 2: The animals were administered per os) a dose of 50 mg/kg of the test compound according to formula (D.
After oral administration of the compounds of formula (I) solubilized or suspended in CarboxyMethylCellulose (0.5%), Tween 20 (0.25%) and water as vehicle, the animals had access to commercial food (D04, UAR, Villemoisson/Orge, France) ad libitum. The diabetic state of the mice was verified by determining the blood glucose level before drug administration. Blood glucose and serum insulin levels were then determined 4 hrs after drug administration.
The determination of the blood glucose level was performed using a glucometer (Precision Q.I.D., Medisense, Abbot, ref. 212.62.31). […]
Changes in blood glucose and serum insulin of drug treated mice were expressed as a percentage of control (group 1: vehicle treated mice).

human GSK3 beta, sequence (P49841 whole entry): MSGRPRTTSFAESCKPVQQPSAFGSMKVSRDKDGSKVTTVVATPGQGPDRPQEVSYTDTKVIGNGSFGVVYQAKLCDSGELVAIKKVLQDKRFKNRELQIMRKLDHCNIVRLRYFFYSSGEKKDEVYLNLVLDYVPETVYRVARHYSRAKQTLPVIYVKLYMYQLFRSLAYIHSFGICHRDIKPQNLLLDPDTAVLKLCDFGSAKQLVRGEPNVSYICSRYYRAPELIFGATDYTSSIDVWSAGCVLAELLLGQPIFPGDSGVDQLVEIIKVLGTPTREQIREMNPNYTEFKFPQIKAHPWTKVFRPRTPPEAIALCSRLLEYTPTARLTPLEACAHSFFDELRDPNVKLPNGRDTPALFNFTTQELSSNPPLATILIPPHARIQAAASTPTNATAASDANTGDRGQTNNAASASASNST

What is called IC50 is the point on the concentration scale where inhibition reaches its midpoint. Turning to `Cc1cnc(NC2CCCC2)nc1C(C#N)=C1Nc2ccccc2N1` [Example 28, [2-(cyclopentylamino)-5-methylpyrimidin-4yl](1,3-dihydro-2H-benzimidazol-2-ylidene)acetonitrile], the IC50 on human GSK3 beta is below 10 µM. Consider `CCN1/C(=C(\C#N)c2nc(NC(=O)Cc3ccccc3OC)ncc2C)Nc2ccccc21` [Example 79, N-{4-[(Z)-cyano(1-ethyl-1,3-dihydro-2H-benzimidazol-2-ylidene)methyl]-5-methylpyrimidin-2-yl}-2-(2-methoxyphenyl)acetamide], for which the IC50 on human GSK3 beta was below 10 µM. `CCN1/C(=C(\C#N)c2nc(NC(=O)CCCNC(=O)OC(C)(C)C)ncc2C)Nc2ccccc21` [Example 73, tert-butyl[4-({4-[(Z)-cyano(1-ethyl-1,3-dihydro-2H-benzimidazol-2-ylidene)methyl]-5-methylpyrimidin-2-yl}amino)-4oxobutyl]carbamate]: the IC50 at human GSK3 beta is below 10 µM. On the same count and under the same terms, as for `CCN1/C(=C(\C#N)c2cc(NCCc3cccnc3)ncn2)Nc2ccccc21` [Example 46], the figure is below 10 µM. With `CCN1/C(=C(\C#N)c2nc(NC(=O)C3CN(C(=O)OC(C)(C)C)CCO3)ncc2C)Nc2ccccc21` (stereo not drawn) [Example 84, tert-butyl 2-[({4-[(Z)-cyano(1-ethyl-1,3-dihydro-2H-benzimidazol-2-ylidene)methyl]-5-methylpyrimidin-2-yl}amino)carbonyl]morpholine-4-carboxylate], the IC50 at human GSK3 beta was below 10 µM.

On to `N#C/C(=C1/Nc2ccccc2N1C1CCC1)c1ccnc(NCCCN2CCCC2=O)n1` [Example 15, (2Z)-(1-cyclobutyl-1,3-dihydro-2H-benzimidazol-2-ylidene)(2-{[3-(2-oxopyrrolidin-1-yl)propyl]amino}pyrimidin-4-yl)acetonitrile], for which the IC50 on human GSK3 beta is below 10 µM. Still for that read-out and setting: as for `CCN1/C(=C(\C#N)c2nc(NC3CCCCCC3)ncc2C)Nc2ccccc21` [Example 12, (2Z)-[2-(cycloheptylamino)-5-methylpyrimidin-4-yl](1-ethyl-1,3-dihydro-2H-benzimidazol-2-ylidene)acetonitrile], the figure is below 10 µM.

Regarding `CCN1/C(=C(\C#N)c2nc(NC3CCC3)ncc2C)Nc2ccccc21` [Example 3], the “blood glucose level reduced” value in the assay on db/db mice is “about 28%”. In addition, the insulin level reduced result in the assay with db/db mice (serum insulin) is “about 58%”.
